26 compounds from ChEMBL document CHEMBL1123733, “Structure-activity relationship in PAF-acether. 3. Hydrophobic contribution to agonistic activity” (J Med Chem, 1987) can be followed below.

Experiment [1] is filed under the species Oryctolagus cuniculus. The experiment is described as follows: Relative aggregant activity in rabbit platelets was determined. The experiment is classed as functional.
Experiment [2] concerns Cavia porcellus. The experiment is described as follows: Compound was evaluated for in vivo bronchoconstriction in anesthetized guinea pig (3 cm H2O). The experiment is classed as functional, Lung.
In experiment [3] the test system is Cavia porcellus. The experiment is described as follows: Compound was evaluated for in vivo thrombocytopenia effect in anesthetized guinea pig. The experiment is classed as functional, organism-based.
Experiment [4] relates to Rattus norvegicus. Kind of experiment: (§1) Compound is evaluated for hypotensive activity in anesthetized rat (in vivo). The experiment is classed as functional.
The species named for experiment [5] is Oryctolagus cuniculus. Kind of experiment: Compound was tested in vitro for its ability to aggregate washed rabbit platelets (WP). The experiment is classed as functional.
The species entered for experiment [6] is Oryctolagus cuniculus. The experiment is described as follows: Compound was tested in vitro for its ability to aggregate platelet-rich plasma (PRP) in rabbit. The experiment is classed as functional.
The nature of experiment [7]: as §1. The experiment is classed as functional.

Some results are limits rather than exact numbers.

In experiment [1], `CCCCCCCCCCCCCCCCCCCCC(COP(=O)([O-])OCC[N+](C)(C)C)OC(C)=O` (stereo not drawn) displayed an RA of 0.
Compound `CCCCCCCCCCCCCCCCCCCCOCC(COP(=O)([O-])OCC[N+](C)(C)C)OC(C)=O` (stereo not drawn) displayed an RA in experiment [1] of 0.8. The compound further came in with an Activity in experiment [2] of 1.3e-09 M/kg. The EC50 in experiment [3] worked out at 1.8e-10 M/kg; in experiment [5] it was 0.33 nM; in experiment [6], 190 nM. The compound also returned an EC30 in experiment [4] of 2.4e-09 M/kg.
In the case of `COCC(COP(=O)([O-])OCC[N+](C)(C)C)OC(C)=O` (stereo not drawn), in experiment [2], the Activity is over 1.6e-06 M/kg. Moreover, the EC50 is over 1.6e-06 M/kg in experiment [3] and over 100000 nM in experiment [6]. The compound further came in with an EC30 in experiment [4] of over 1.6e-06 M/kg.
With `CCCCCCCCCCOCCOCCOCC(COP(=O)([O-])OCC[N+](C)(C)C)OC(C)=O` (stereo not drawn), in experiment [1], the RA came to 0.28.
`CCCCCCCCCCCCCCCC(=O)OCC(COP(=O)([O-])OCC[N+](C)(C)C)OC(C)=O` (stereo not drawn) showed an RA in experiment [1] of 0.009.
As to `CCCCCCCCCCCCCCc1cccc(OCC(COP(=O)([O-])OCC[N+](C)(C)C)OC(C)=O)c1` (stereo not drawn), the RA in experiment [1] is on record as 0.364.
In experiment [1], `CCCCCCCCCCOCC(COP(=O)([O-])OCC[N+](C)(C)C)OC(C)=O` (stereo not drawn) gave an RA of 1.048. This compound had an Activity in experiment [2] of 2.5e-10 M/kg. For the same compound, the EC50 was 6e-10 M/kg in experiment [3], 8.5 nM in experiment [5] and 1200 nM in experiment [6]. In experiment [7], this compound yielded an EC30 of 7e-09 M/kg.
On to `CCCCCCOCC(COP(=O)([O-])OCC[N+](C)(C)C)OC(C)=O` (stereo not drawn), for which, in experiment [1], the RA was 0.003. Besides, the Activity in experiment [2] is 2.6e-08 M/kg. Also, the EC50 in experiment [3] came to 1e-07 M/kg; in experiment [5], 310 nM; in experiment [6] it was 17000 nM. In experiment [4], this compound gave an EC30 of 7e-07 M/kg.
For the compound `CCCCCCCCCCOCc1ccc(OCC(COP(=O)([O-])OCC[N+](C)(C)C)OC(C)=O)cc1` (stereo not drawn), the RA in experiment [1] worked out at 0.01.
Regarding `CCCCCCCCCCCCCCCCOCCC(COP(=O)([O-])OCC[N+](C)(C)C)OC(C)=O` (stereo not drawn), the RA in experiment [1] turned out to be 0.015.
In the case of `CCCCCCCCCCCCCCCCCC(COP(=O)([O-])OCC[N+](C)(C)C)OC(C)=O` (stereo not drawn), the RA in experiment [1] was determined as 0.005.
Same read-out and setting: then `CCCCCCCC/C=C/CCCCCCCCOCC(COP(=O)([O-])OCC[N+](C)(C)C)OC(C)=O` (stereo not drawn), with 2.
The same measure, in the same setting: with `CCCCCCCCCCOc1ccc(COCC(COP(=O)([O-])OCC[N+](C)(C)C)OC(C)=O)cc1` (stereo not drawn) the figure was 0.01.
`CCCCC/C=C/C/C=C/CCCCCCCCOCC(COP(=O)([O-])OCC[N+](C)(C)C)OC(C)=O` (stereo not drawn) returned an RA in experiment [1] of 2.667.
In the case of `CCCCCCCCCCCCCCCCc1ccccc1OCC(COP(=O)([O-])OCC[N+](C)(C)C)OC(C)=O` (stereo not drawn), the RA in experiment [1] is 0.002.
As to `CCCCOCC(COP(=O)([O-])OCC[N+](C)(C)C)OC(C)=O` (stereo not drawn), the RA in experiment [1] was 0.001. Besides, in experiment [2], the Activity amounted to 1e-06 M/kg. In addition, the EC50 is 1e-06 M/kg in experiment [3], 1800 nM in experiment [5] and 100000 nM in experiment [6]. In experiment [4], this compound had an EC30 of 1.1e-06 M/kg.
In experiment [1], `COCCOCCOCCCCCCCCOCC(COP(=O)([O-])OCC[N+](C)(C)C)OC(C)=O` (stereo not drawn) showed an RA of 0.007.
In experiment [1], `CCCCCCCCCCCCOCC(COP(=O)([O-])OCC[N+](C)(C)C)OC(C)=O` (stereo not drawn) returned an RA of 1.248. The same compound came in with an Activity in experiment [2] of 1.2e-10 M/kg. Moreover, the EC50 in experiment [3] turned out to be 6e-10 M/kg; in experiment [5], 0.45 nM; in experiment [6] it was 230 nM. The EC30 in experiment [4] amounted to 3.3e-09 M/kg.
Compound `CCCCCCCCCCCCCCc1ccc(OCC(COP(=O)([O-])OCC[N+](C)(C)C)OC(C)=O)cc1` (stereo not drawn) gave an RA in experiment [1] of 0.302.
Regarding `CCCCCC/C=C/CCCCCCCCOCC(COP(=O)([O-])OCC[N+](C)(C)C)OC(C)=O` (stereo not drawn), the RA in experiment [1] was 1.6.
`CCCCCCCCCCCCCCCCCC(=O)OCC(COP(=O)([O-])OCC[N+](C)(C)C)OC(C)=O` (stereo not drawn) gave an RA in experiment [1] of 0.004.
Still for that read-out and setting: then `CCCCCCCCCCCCCCCCCCC(COP(=O)([O-])OCC[N+](C)(C)C)OC(C)=O` (stereo not drawn), with 0.022.
`CCCCCCCCCCCCCCCCCCOC[C@H](COP(=O)([O-])OCC[N+](C)(C)C)OC(C)=O` gave an Activity in experiment [2] of 1.8e-10 M/kg. Moreover, the figures for the EC50 in experiment [3] and in experiment [6] were 1.8e-10 M/kg and 19 nM, respectively. In experiment [4], the EC30 was determined as 4.9e-10 M/kg.
With `CCCCCCCCCCCCCCCCCCOCC(COP(=O)([O-])OCC[N+](C)(C)C)OC(C)=O` (stereo not drawn), the RA in experiment [1] is listed as 1. In experiment [6], this compound showed an EC50 of 57 nM.
In experiment [1], `CCCCCCCCCCCCCCCCCCSCC(COP(=O)([O-])OCC[N+](C)(C)C)OC(C)=O` (stereo not drawn) showed an RA of 0.
With `CCCCCCCCCCCCCCCCOCC(COP(=O)([O-])OCC[N+](C)(C)C)OC(C)=O` (stereo not drawn) [PLATELET ACTIVATING FACTOR], in experiment [1], the RA was found to be 1.268. For the same compound, the Activity in experiment [2] was 5e-11 M/kg. For the same compound, the EC50 worked out at 2e-10 M/kg in experiment [3], 0.2 nM in experiment [5] and 45 nM in experiment [6]. The EC30 in experiment [4] worked out at 1.3e-10 M/kg.
